Assay results taken from patent publication US20060069132A1, “Azolecarboxamide herbicides” (priority 2004, published 2006).

How the values were obtained:
[1] = system: barnyardgrass; assay: Test B pre-/postemergence herbicide test; format: in vivo, Echinochloa crus-galli; conditions: for Barnyardgrass plant response rating: Postemergence, scale 0 (no effect) to 100 (complete control)
Summary of the method: (§1)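 Pre: seeds sown, then sprayed. Post: 1–4-leaf plants (2–18 cm) sprayed at the same time. Paddy: flooded, treated at 2-leaf stage. Formulation: non-phytotoxic solvent with surfactant. Greenhouse 13–15 days; visual 0–100 score relative to controls.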

[2] = system: Surinam grass; assay: Test B pre-/postemergence herbicide test; format: in vivo, Urochloa decumbens
Summary of the method: (§2)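 Greenhouse pot assay with simultaneous preemergence (treated seed) and postemergence (2–18 cm seedlings) applications of surfactant-containing, non-phytotoxic solvent formulations. Response scored visually 13–15 days later on a 0–100 scale, 100 meaning complete control.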

[3] = system: cocklebur; assay: Test B pre-/postemergence herbicide test; format: in vivo, Xanthium strumarium
Summary of the method: as §1

[4] = system: corn; assay: Test B pre-/postemergence herbicide test; format: in vivo, Zea mays
Summary of the method: as §2

[5] = system: large crabgrass; assay: Test B pre-/postemergence herbicide test; format: in vivo, Digitaria sanguinalis
Summary of the method: as §2

[6] = system: giant foxtail; assay: Test B pre-/postemergence herbicide test; format: in vivo, Setaria faberi
Summary of the method: as §2

[7] = system: lambsquarters; assay: Test B pre-/postemergence herbicide test; format: in vivo, Chenopodium album
Summary of the method: as §2

[8] = system: morningglory; assay: Test B pre-/postemergence herbicide test; format: in vivo, Ipomoea coccinea
Summary of the method: as §1

[9] = system: pigweed; assay: Test B pre-/postemergence herbicide test; format: in vivo, Amaranthus retroflexus
Summary of the method: as §2

[10] = system: velvetleaf; assay: Test B pre-/postemergence herbicide test; format: in vivo, Abutilon theophrasti
Summary of the method: as §2

[11] = system: blackgrass; assay: Test B postemergence herbicide test; format: in vivo, Alopecurus myosuroides
Summary of the method: (§3)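 Read-out: visual comparison with controls, scored 0 to 100, where 100 means complete control and 0 no effect. Formulated chemicals were applied postemergence to plants 2–18 cm tall (1- to 4-leaf), or to flooded-paddy plants at the 2-leaf stage, then held 13 to 15 days under glass.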

[12] = system: wheat; assay: Test B postemergence herbicide test; format: in vivo, Triticum aestivum; design: key to Wheat plant response rating: 0 = no effect, 100 = complete control
Summary of the method: (§4)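 Postemergence plants were sprayed with formulated test chemicals at 2 to 18 cm height (1- to 4-leaf stage); paddy species were grown to the 2-leaf stage. After 13 to 15 days in a greenhouse, injury was rated visually against untreated controls on a 0–100 scale (0 = no effect, 100 = complete control).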

[13] = system: wild oat; assay: Test B postemergence herbicide test; format: in vivo, Avena fatua
Summary of the method: as §4

[14] = system: rice; assay: Test B flooded paddy test; format: in vivo, Oryza sativa; conditions: 1000 g ai/ha, scale 0 to 100 (0 no effect, 100 complete control)
Summary of the method: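 Greenhouse test; postemergence application to plants at 1–4 leaves (2–18 cm); paddy species at 2 leaves; evaluated visually vs controls at 13–15 days; scale 0–100 (100 = complete control).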

[15] = system: small flower umbrella sedge; assay: Test B flooded paddy test; format: in vivo, Cyperus difformis; conditions: 1000 g ai/ha, scale 0 to 100 (0 no effect, 100 complete control)
Summary of the method: as §3

[16] = system: ducksalad; assay: Test B flooded paddy test; format: in vivo, Heteranthera limosa; conditions: 1000 g ai/ha, scale 0 to 100 (0 no effect, 100 complete control)
Summary of the method: as §3

[17] = system: barnyardgrass; assay: Test B flooded paddy test; format: in vivo, Echinochloa crus-galli; conditions: 1000 g ai/ha, scale 0 to 100 (0 no effect, 100 complete control)
Summary of the method: as §3

[18] = system: winter barley; assay: Test C postemergence herbicide test; format: in vivo, Hordeum vulgare
Summary of the method: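 Injury scored visually against controls on a 0 (no effect) to 100 (complete control) scale, 12 to 14 days after treatment in greenhouse. Flooded paddy plants treated at 2-leaf stage; postemergence plants at 1- to 4-leaf stage, 2 to 18 cm tall.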

[19] = system: blackgrass; assay: Test C postemergence herbicide test; format: in vivo, Alopecurus myosuroides
Summary of the method: (§5)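 Postemergence sprays applied to plants 2 to 18 cm tall (1- to 4-leaf stage); paddy species grown to 2-leaf stage under flooding. After 12 to 14 days in greenhouse, visual rating versus untreated controls on 0–100 scale (0 no effect, 100 complete control).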

[20] = system: canarygrass; assay: Test C postemergence herbicide test; format: in vivo, Phalaris minor
Summary of the method: as §5

[21] = system: downy bromegrass; assay: Test C postemergence herbicide test; format: in vivo, Bromus tectorum
Summary of the method: as §5

[22] = system: green foxtail; assay: Test C postemergence herbicide test; format: in vivo, Setaria viridis
Summary of the method: as §5

[23] = system: Italian ryegrass; assay: Test C postemergence herbicide test; format: in vivo, Lolium multiflorum; conditions: postemergence, scale 0 to 100
Summary of the method: as §5

[24] = system: wheat; assay: Test C postemergence herbicide test; format: in vivo, Triticum aestivum; conditions: postemergence, scale 0 to 100
Summary of the method: as §5

[25] = system: wild oat; assay: Test C postemergence herbicide test; format: in vivo, Avenafatua; conditions: postemergence, scale 0 to 100
Summary of the method: as §5

[26] = system: windgrass; assay: Test C postemergence herbicide test; format: in vivo, Apera spica-venti; conditions: postemergence, scale 0 to 100
Summary of the method: as §5

[27] = 125 g ai/ha, 0 is no effect, 100 is complete control, preemergence
[28] = Postemergence, 500 g ai/ha, scale 0 (no effect) to 100 (complete control)
[29] = postemergence, 125 g ai/ha, scale 0 to 100
[30] = Postemergence, 250 g ai/ha, scale 0 to 100, 0 no effect, 100 complete control
[31] = postemergence, 31 g ai/ha, scale 0 to 100
[32] = postemergence, 62 g ai/ha, scale 0 to 100

`C=CCNC(=O)c1ccc(F)c(NC(=O)c2cc(C(C)(C)C)nn2CC)c1` [Compound 430] was tested, and the “Plant response rating (0 to 100 scale), Barnyardgrass” value [1, 27] was 90, the “Barnyardgrass plant response rating” value ([1]; 125 g ai/ha) was 30 and the “Barnyardgrass plant response rating” value ([1]; 500 g ai/ha) was 50. For the same compound, the “Plant response rating (0 to 100 scale), Surinam Grass” value [2, 27] was 80, the “Surinam Grass plant response rating” value [2, 28] was 40 and the “Surinam Grass plant response rating” value [2, 29] was 30. For the same compound, the “Plant response rating (0 to 100 scale), Cocklebur” value [3, 27] was 10, the “Cocklebur plant response rating” value [3, 28] was 90 and the “Cocklebur plant response rating” value [3, 29] was 60. The “Plant response rating (0 to 100 scale), Corn” value [4, 27] was 50, the “Corn plant response rating” value [4, 28] was 40 and the “Corn plant response rating” value [4, 29] was 20. The “Plant response rating (0 to 100 scale), Crabgrass, Large” value [5, 27] was 100, the “Crabgrass, Large plant response rating” value [5, 28] was 50 and the “Crabgrass, Large plant response rating” value [5, 29] was 30. For the same compound, the “Plant response rating (0 to 100 scale), Foxtail, Giant” value [6, 27] was 90, the “Foxtail, Giant plant response rating” value [6, 28] was 40 and the “Foxtail, Giant plant response rating” value [6, 29] was 30. For the same compound, the “Plant response rating (0 to 100 scale), Lambsquarters” value [7, 27] was 100, the “Lambsquarters plant response rating” value [7, 28] was 80 and the “Lambsquarters plant response rating” value [7, 29] was 60. For the same compound, the “Plant response rating (0 to 100 scale), Morningglory” value [8, 27] was 20, the “Morningglory plant response rating” value [8, 28] was 70 and the “Morningglory plant response rating” value [8, 29] was 60. The “Plant response rating (0 to 100 scale), Pigweed” value [9, 27] was 100, the “Pigweed plant response rating” value [9, 28] was 80 and the “Pigweed plant response rating” value [9, 29] was 60. The “Plant response rating (0 to 100 scale), Velvetleaf” value [10, 27] was 40, the “Velvetleaf plant response rating” value [10, 28] was 80 and the “Velvetleaf plant response rating” value [10, 29] was 60. For the same compound, the “Blackgrass plant response rating” value [11, 28] was 70, the “Blackgrass plant response rating” value [11, 29] was 40 and the “Wheat plant response rating” value ([12]; 500 g ai/ha, scale 0 to 100, 0 no effect, 100 complete control, preemergence) was 100. The “Wheat plant response rating” value [12, 28] was 40, the “Wheat plant response rating” value [12, 29] was 30 and the “Oat, Wild plant response rating” value [13, 28] was 50. For the same compound, the “Oat, Wild plant response rating” value [13, 29] was 40, the “Rice plant response rating” value [14] was 60 and the “Sedge, Umbrella plant response rating” value [15] was 80. For the same compound, the “Ducksalad plant response rating” value [16] was 80, the “Barnyardgrass plant response rating” value [17] was 80 and the “Plant response rating, Barley, Winter” value ([18]; Postemergence, 125 g ai/ha, scale 0 to 100, 0 no effect, 100 complete control) was 35. For the same compound, the “Plant response rating, Barley, Winter” value [18, 30] was 45, the “Plant response rating, Barley, Winter” value [18, 31] was 25 and the “Plant response rating, Barley, Winter” value ([18]; postemergence, 62 g ai/ha, scale 0 to 100 (0 no effect, 100 complete control)) was 30. For the same compound, the “Plant response rating, Blackgrass” value [19, 30] was 65, the “Plant response rating, Blackgrass” value [19, 29] was 55 and the “Plant response rating, Blackgrass” value [19, 31] was 45. The “Plant response rating, Blackgrass” value [19, 32] was 50, the “Plant response rating, Canarygrass” value [20, 30] was 60 and the “Plant response rating, Canarygrass” value [20, 29] was 50. The “Plant response rating, Canarygrass” value [20, 31] was 30, the “Plant response rating, Canarygrass” value [20, 32] was 40 and the “Plant response rating, Bromegrass, Downy” value [21, 30] was 55. The “Plant response rating, Bromegrass, Downy” value [21, 29] was 50, the “Plant response rating, Bromegrass, Downy” value [21, 31] was 45 and the “Plant response rating, Bromegrass, Downy” value [21, 32] was 45. For the same compound, the “Plant response rating, Foxtail, Green” value [22, 30] was 60, the “Plant response rating, Foxtail, Green” value [22, 29] was 50 and the “Plant response rating, Foxtail, Green” value [22, 32] was 45. The “Plant response rating, Ryegrass, Italian” value ([23]; 125 g ai/ha) was 60, the “Plant response rating, Ryegrass, Italian” value ([23]; 62 g ai/ha) was 55 and the “Plant response rating, Wheat” value ([24]; 125 g ai/ha) was 50. The “Plant response rating, Wheat” value ([24]; 62 g ai/ha) was 45, the “Plant response rating, Oat, Wild” value ([25]; 125 g ai/ha) was 60 and the “Plant response rating, Oat, Wild” value ([25]; 62 g ai/ha) was 55. For the same compound, the “Plant response rating, Windgrass” value ([26]; 125 g ai/ha) was 45 and the “Plant response rating, Windgrass” value ([26]; 62 g ai/ha) was 35.
